The values below come from PMC10068823 (European Journal of Medicinal Chemistry, 2023).

Usually EC50 stands for the concentration needed to bring the measured effect to its halfway point.

For series [1], the system named is HCoV 229E. The settings on record: BEAS2B cell.
In series [2] the test system is HCoV 229E. The experiment in a line: organism not typed. The settings on record: BEAS-2B, read-out: EC50 HCoV229E.
For series [3], the target named is T1, SARS-CoV-2 3CL^pro (Severe acute respiratory syndrome coronavirus 2, UniProt P0DTD1). In kind it is biochemical.
Series [4] concerns the target T1, SARS-CoV-2 3CL^pro. It is filed as biochemical. The source holds these as a separate data set.

As for `CC(C)C[C@H](NC(=O)[C@@H](NC(=O)OC(C)(C)C)C(C)C)C(=O)N[C@H](C=O)C[C@@H]1CCNC1=O` [Compound 5, tert-Butyl ((S)-3-methyl-1-(((S)-4-methyl-1-oxo-1-(((S)-1-oxo-3-((S)-2-oxopyrrolidin-3-yl)propan-2-yl)amino)pentan-2-yl)amino)-1-oxobutan-2-yl)carbamate], the “improvement in antiviral potency when co-dosed with CP-100356” value (“improvement in antiviral potency” below) in the series with SARS-CoV-2 is on record as “more than 3 fold”. Moreover, the “SI (CC50/EC50) HCoV229E” value with HCoV 229E [1] is reported as greater than 30.1. Further, in the series on MERS-CoV, the “SI (CC50/EC50) MERS” value is on record as 1.58 ± 0.91 (>63).
For the compound `CC(C)[C@H](NC(=O)OC(C)(C)C)C(=O)N1CCC[C@H]1C(=O)N[C@H](C=O)C[C@@H]1CCNC1=O` [Compound 6, tert-Butyl ((S)-3-methyl-1-oxo-1-((S)-2-(((S)-1-oxo-3-((S)-2-oxopyrrolidin-3-yl)propan-2-yl)carbamoyl)pyrrolidin-1-yl)butan-2-yl)carbamate], in the series on HCoV 229E [1], the “SI (CC50/EC50) HCoV229E” value is less than 10. For the same compound, the “SI (CC50/EC50) MERS” value with MERS-CoV is 4.56 ± 1.39 (>22). For the same compound, the EC50 in the series on HCoV 229E [2] is greater than 17.9 µM.
Turning to `CO[C@H]1C[C@@H](C(=O)N[C@H](C=O)C[C@@H]2CCNC2=O)N(C(=O)[C@@H](NC(=O)OC(C)(C)C)C(C)C)C1` [Compound 8, tert-Butyl ((S)-1-((2S,4S)-4-methoxy-2-(((S)-1-oxo-3-((S)-2-oxopyrrolidin-3-yl)propan-2-yl)carbamoyl)pyrrolidin-1-yl)-3-methyl-1-oxobutan-2-yl)carbamate], in the series on HCoV 229E [1], the “SI (CC50/EC50) HCoV229E” value is listed as less than 10. Moreover, in the series on MERS-CoV, the “SI (CC50/EC50) MERS” value was 0.58 ± 0.34 (>172) and the “increase in potency on MERS respect to SARS-CoV-2 in the CPE cellular assay” value was 15 fold. In the series with HCoV 229E [2], the EC50 was greater than 3.6 µM.
As for `CC(C)[C@H](NC(=O)OC(C)(C)C)C(=O)N1C[C@H](OC(C)(C)C)C[C@H]1C(=O)N[C@H](C=O)C[C@@H]1CCNC1=O` [Compound 11, tert-Butyl ((S)-1-((2S,4R)-4-(tert-butoxy)-2-(((S)-1-oxo-3-((S)-2-oxopyrrolidin-3-yl)propan-2-yl)carbamoyl)pyrrolidin-1-yl)-3-methyl-1-oxobutan-2-yl)carbamate], the “improvement in antiviral potency” value in the series with SARS-CoV-2 is listed as “more than 3 fold”. The “SI (CC50/EC50) HCoV229E” value in the series with HCoV 229E [1] is less than 10. Moreover, in the series on MERS-CoV, the “SI (CC50/EC50) MERS” value is 33.56 ± 6.8 (>3). For the same compound, the EC50 in the series with HCoV 229E [2] was greater than 48.2 µM.
Turning to `CC(C)[C@H](NC(=O)OC(C)(C)C)C(=O)N1C[C@@H]2CCC[C@@H]2[C@H]1C(=O)N[C@H](C=O)C[C@@H]1CCNC1=O` [Compound 12, tert-Butyl ((S)-3-methyl-1-oxo-1-((1S,3aR,6aS)-1-(((S)-1-oxo-3-((S)-2-oxopyrrolidin-3-yl)propan-2-yl)carbamoyl)hexahydrocyclopenta[c]pyrrol-2(1H)-yl)butan-2-yl)carbamate], the “cytotoxicity in Calu-3 cells” value in the series on Calu-3 cells was “without sign of cytotoxicity”. At SARS-CoV-2 3CL^pro [3], the “mechanism of action from enzymatic progression curve” value is listed as “slow covalent binding inhibitor”. Further, the “lower activity against MERS compared to SARS-CoV-2” value in the series on MERS-CoV turned out to be 20 fold.
As to `CC(C)[C@H](NC(=O)OC(C)(C)C)C(=O)N1CCCC[C@H]1C(=O)N[C@H](C=O)C[C@@H]1CCNC1=O` [Compound 13, tert-Butyl ((S)-3-methyl-1-oxo-1-((S)-2-(((S)-1-oxo-3-((S)-2-oxopyrrolidin-3-yl)propan-2-yl)carbamoyl)piperidin-1-yl)butan-2-yl)carbamate], the “improvement in antiviral potency” value in the series with SARS-CoV-2 is “more than 3 fold”.
Still for that read-out and setting: in the case of `C[C@H](OC(C)(C)C)[C@H](NC(=O)OC(C)(C)C)C(=O)N1CCC[C@H]1C(=O)N[C@H](C=O)C[C@@H]1CCNC1=O` [Compound 14, tert-Butyl ((2S,3S)-3-(tert-butoxy)-1-oxo-1-((S)-2-(((S)-1-oxo-3-((S)-2-oxopyrrolidin-3-yl)propan-2-yl)carbamoyl)pyrrolidin-1-yl)butan-2-yl)carbamate] it was “more than 3 fold”.
`COC(=O)[C@H](C[C@@H]1CCNC1=O)NC(=O)[C@@H]1CCCN1C(=O)[C@@H](NC(=O)OC(C)(C)C)C(C)C` [Compound 25g, Methyl (S)-2-((S)-1-((tert-butoxycarbonyl)-L-valyl)pyrrolidine-2-carboxamido)-3-((S)-2-oxopyrrolidin-3-yl)propanoate]: the “SARS-CoV-2 3CL^pro enzyme inhibition at fixed concentration” value at SARS-CoV-2 3CL^pro [4] is “inactive”.
On to `CC(C)[C@H](NC(=O)OC(C)(C)C)C(=O)N1CCC[C@H]1C(=O)N[C@@H](C[C@@H]1CCNC1=O)C(=O)O` [Compound 26, (S)-2-((S)-1-((tert-butoxycarbonyl)-L-valyl)pyrrolidine-2-carboxamido)-3-((S)-2-oxopyrrolidin-3-yl)propanoic acid], for which the “SARS-CoV-2 3CL^pro enzyme inhibition at fixed concentration” value at SARS-CoV-2 3CL^pro [4] is “inactive”.
Still for that read-out and setting: in the case of `CC(C)[C@H](NC(=O)OC(C)(C)C)C(=O)N1CCC[C@H]1C(=O)N[C@H](CO)C[C@@H]1CCNC1=O` [Compound 27g, tert-Butyl ((S)-1-((S)-2-(((S)-1-hydroxy-3-((S)-2-oxopyrrolidin-3-yl)propan-2-yl)carbamoyl)pyrrolidin-1-yl)-3-methyl-1-oxobutan-2-yl)carbamate] it was “inactive”.
